Measured values from the NIST ThermoML archive (doi:10.1021/je050464i).
Values joined by “and” are separate entries in the source; they are usually repeats but may differ in a detail not shown here. Identical values can stand only once. ± gives the expanded uncertainty stated by the source.

Details: Crystal, Calculated from knudsen effusion weight loss

[Pd] [palladium]
Details | vapor or sublimation pressure
1473 K | 1e-05 kPa
1498 K | 2e-05 ± 2e-05 kPa
1523 K | 3e-05 ± 2e-05 kPa
1548 K | 6e-05 ± 4e-05 kPa
1573 K | 9e-05 ± 3e-05 kPa
1576 K | 9e-05 ± 0.00016 kPa
1598 K | 0.000141 ± 3e-05 kPa
1600 K | 0.00011 ± 3e-05 kPa
1626 K | 0.0002 ± 0.00014 kPa
1648 K | 0.00028 ± 9e-05 kPa
1650 K | 0.00026 ± 0.00019 kPa
1660 K | 0.0005 ± 0.0002 kPa
1673 K | 0.0004 ± 0.00019 kPa and 0.0004 ± 0.0002 kPa and 0.0004 ± 8e-05 kPa
1676 K | 0.00044 ± 0.00018 kPa
1685 K | 0.00067 ± 0.00019 kPa
1698 K | 0.0005 ± 0.0006 kPa and 0.00076 ± 0.00012 kPa and 0.00058 ± 5e-05 kPa
1700 K | 0.00061 ± 0.00014 kPa
1706 K | 0.0009 ± 0.0002 kPa
1723 K | 0.00108 ± 0.0002 kPa [middle of 4 runs]
1726 K | 0.00094 ± 0.00018 kPa
1740 K | 0.0012 ± 0.0003 kPa
1748 K | 0.0016 ± 0.0005 kPa and 0.0016 ± 0.0003 kPa and 0.0012 ± 0.00026 kPa
1750 K | 0.00131 ± 0.0003 kPa
1773 K | 0.002 ± 0.0005 kPa and 0.0022 ± 0.0005 kPa
1776 K | 0.002 ± 0.0003 kPa
1798 K | 0.0024 ± 0.0009 kPa and 0.0029 ± 0.0006 kPa
1800 K | 0.0027 ± 0.0005 kPa
1802 K | 0.0024 ± 0.0009 kPa
1806 K | 0.002 ± 0.002 kPa
1823 K | 0.004 ± 0.0011 kPa
1825 K | 0.0037 ± 0.0009 kPa
1840 K | 0.0047 ± 0.0011 kPa
1848 K | 0.0048 ± 0.0011 kPa
1850 K | 0.0053 ± 0.0011 kPa
1860 K | 0.0061 ± 0.0017 kPa
1873 K | 0.008 ± 0.008 kPa and 0.0076 ± 0.0017 kPa
1883 K | 0.0066 ± 0.0018 kPa
1885 K | 0.0082 ± 0.0017 kPa
1898 K | 0.01 ± 0.014 kPa and 0.0094 ± 0.002 kPa
1900 K | 0.0098 ± 0.0016 kPa
1910 K | 0.0109 ± 0.0023 kPa
1912 K | 0.0111 ± 0.002 kPa
1923 K | 0.013 ± 0.006 kPa and 0.014 ± 0.003 kPa
1925 K | 0.0125 ± 0.0021 kPa
1940 K | 0.015 ± 0.004 kPa
1942 K | 0.0157 ± 0.0035 kPa
1948 K | 0.018 ± 0.01 kPa and 0.017 ± 0.003 kPa and 0.021 ± 0.005 kPa
1950 K | 0.0174 ± 0.0031 kPa and 0.0166 ± 0.003 kPa
1954 K | 0.021 ± 0.005 kPa
1963 K | 0.02 ± 0.004 kPa and 0.0201 ± 0.0034 kPa
1965 K | 0.0203 ± 0.0028 kPa and 0.0204 ± 0.0028 kPa
1970 K | 0.024 ± 0.018 kPa
1972 K | 0.022 ± 0.005 kPa
1973 K | 0.022 ± 0.005 kPa and 0.024 ± 0.007 kPa and 0.02 ± 0.003 kPa
